Measurements taken from patent US20180338927A1, “ETHER CELLULOSE DERIVATIVE MICROPARTICLE” (Toray Industries, Inc., priority 2015, published 2018).
Counter-ions that a name gives are not always drawn.

assay: Comparison of supported amounts by HPLC (Test Example 8); type: physicochemical; details: porous Example 6 microparticles (Examples 10 to 15) versus raw material ethyl cellulose powder (Comparative Examples 6 to 11)
Procedure: The supported amount ratio of a physiologically active substance between microparticles in an example and microparticles in a comparative example supporting the same physiologically active substance was calculated on the basis of the following equation. HPLC measurement was carried out as follows. After weighing 25 mg each of the microparticles in the examples and the comparative examples, the microparticles were respectively put in 50-mL volumetric flasks. Each type of microparticles was completely dissolved in 5 mL of ethanol added, and the solution was diluted with deionized water added and passed through a 0.45-μm filter to provide an HPLC sample. The sample was measured under the same conditions as for Test Example 5.

Point of comparison: `Cn1c(=O)c2[nH]cnc2n(C)c1=O` [Theophylline, theophylline], “Support amount ratio (=example/comparative example)” value 1.2. Against it:
- CC(=O)Nc1ccc(O)cc1 [Acetaminophen, acetaminophen] — higher, 1.4
- CC(C)Cc1ccc(C(C)C(=O)O)cc1 (stereo not drawn) [Ibuprofen, ibuprofen] — the same, 1.2
- C=C[C@H]1C[N@@]2CC[C@H]1C[C@H]2[C@H](O)c1ccnc2ccc(OC)cc12 [Quinine hydrochloride dihydrate, quinine hydrochloride dihydrate] — higher, 1.8
- O=C(O)c1ccccc1O [Salicylic acid, salicylic acid] — higher, 1.6
- Cc1ncc(C[n+]2csc(CCO)c2C)c(N)n1 [Thiamine hydrochloride, thiamine hydrochloride] — higher, 10.7
